This series has as its system CCRIS mutagenicity, Ames/micronucleus/aberration tests. As to the kind of experiment: CCRIS mutagenicity studies.
The mark [1] stands for this setting: Test System: AMES SALMONELLA TYPHIMURIUM, Strain/Indicator: TA100, Metabolic Activation: NONE, Method: STANDARD PLATE.
Where [2] appears, read: Test System: AMES SALMONELLA TYPHIMURIUM, Strain/Indicator: TA98, Metabolic Activation: NONE, Method: PREINCUBATION
The mark [3] stands for this setting: Test System: AMES SALMONELLA TYPHIMURIUM, Strain/Indicator: TA100, Metabolic Activation: NONE, Method: PREINCUBATION
[4] abbreviates: Test System: AMES SALMONELLA TYPHIMURIUM, Strain/Indicator: TA104, Metabolic Activation: NONE, Method: PREINCUBATION

The structures appear in SMILES notation. Active and inactive are the calls of the source. The rule behind the calls is not given here.

For `C[C@]12C=CC3=C4CCC(=O)C=C4CC[C@H]3[C@@H]1CC[C@@H]2O`, the mutagenic call was “inactive; negative” (Test System: AMES SALMONELLA TYPHIMURIUM, Strain/Indicator: TA98, Metabolic Activation: NONE, Method: STANDARD PLATE); “inactive; negative” (Test System: AMES SALMONELLA TYPHIMURIUM, Strain/Indicator: TA98, Metabolic Activation: RAT, LIVER, S-9, AROCLOR 1254 (5%, 30%), Method: PREINCUBATION); “inactive; negative” (Test System: AMES SALMONELLA TYPHIMURIUM, Strain/Indicator: TA98, Metabolic Activation: RAT, LIVER, S-9, AROCLOR 1254, Method: STANDARD PLATE); “inactive; negative; toxicity at 3000 ug/plate” (Test System: AMES SALMONELLA TYPHIMURIUM, Strain/Indicator: TA98, Metabolic Activation: RAT, LIVER, S-9, Method: STANDARD PLATE); “inactive; negative” under setting [1]; “inactive; negative” (Test System: AMES SALMONELLA TYPHIMURIUM, Strain/Indicator: TA100, Metabolic Activation: RAT, LIVER, S-9, AROCLOR 1254 (5%, 30%), Method: PREINCUBATION). Moreover, the mutagenic call is “inactive; negative” (Test System: AMES SALMONELLA TYPHIMURIUM, Strain/Indicator: TA100, Metabolic Activation: RAT, LIVER, S-9, AROCLOR 1254, Method: STANDARD PLATE); “inactive; negative” (Test System: AMES SALMONELLA TYPHIMURIUM, Strain/Indicator: TA100, Metabolic Activation: RAT, LIVER, S-9, Method: STANDARD PLATE); “inactive; negative” (Test System: AMES SALMONELLA TYPHIMURIUM, Strain/Indicator: TA102, Metabolic Activation: RAT, LIVER, S-9, AROCLOR 1254 (5%, 30%), Method: PREINCUBATION); “inactive; negative” (Test System: AMES SALMONELLA TYPHIMURIUM, Strain/Indicator: TA1535, Metabolic Activation: RAT, LIVER, S-9, AROCLOR 1254, Method: STANDARD PLATE); “inactive; negative” (Test System: AMES SALMONELLA TYPHIMURIUM, Strain/Indicator: TA1535, Metabolic Activation: RAT, LIVER, S-9, Method: STANDARD PLATE); “inactive; negative” (Test System: AMES SALMONELLA TYPHIMURIUM, Strain/Indicator: TA1537, Metabolic Activation: RAT, LIVER, S-9, AROCLOR 1254, Method: STANDARD PLATE). Moreover, the mutagenic call (Test System: AMES SALMONELLA TYPHIMURIUM, Strain/Indicator: TA1537, Metabolic Activation: RAT, LIVER, S-9, Method: STANDARD PLATE) is “inactive; negative”; the mutagenic call (Test System: AMES SALMONELLA TYPHIMURIUM, Strain/Indicator: TA1538, Metabolic Activation: RAT, LIVER, S-9, AROCLOR 1254, Method: STANDARD PLATE) was “inactive; negative”; the mutagenic call (Test System: AMES SALMONELLA TYPHIMURIUM, Strain/Indicator: TA1538, Metabolic Activation: RAT, LIVER, S-9, Method: STANDARD PLATE) was “inactive; negative”; the mutagenic call (Test System: CHINESE HAMSTER V-79, Strain/Indicator: V-79/6-THIOGUANINE, Metabolic Activation: NONE, Method: STANDARD PLATE) was “inactive; negative”; the mutagenic call (Test System: CHINESE HAMSTER V-79, Strain/Indicator: V-79/6-THIOGUANINE, Metabolic Activation: RAT, LIVER, S-9, AROCLOR 1254, Method: STANDARD PLATE) is “inactive; negative”; the mutagenic call (Test System: CHO/HGPRT, Strain/Indicator: CHO-K1-BH4, Metabolic Activation: NONE, Method: STANDARD PLATE) is “inactive; negative”. Besides, the mutagenic call (Test System: CHO/HGPRT, Strain/Indicator: CHO-K1-BH4, Metabolic Activation: RAT, LIVER, S-9, AROCLOR 1254, Method: STANDARD PLATE) was “inactive; negative”.

On to `O=c1nc(O)n(Cl)c(=O)n1Cl`, for which the mutagenic call is, setting by setting: (Test System: AMES SALMONELLA TYPHIMURIUM, Strain/Indicator: TA98, Metabolic Activation: HAMSTER, LIVER, S-9, AROCLOR 1254 (10%), Method: PREINCUBATION) “inactive; negative”; under setting [2], “inactive; negative”; (Test System: AMES SALMONELLA TYPHIMURIUM, Strain/Indicator: TA98, Metabolic Activation: RAT, LIVER, S-9, AROCLOR 1254 (10%), Method: PREINCUBATION) “inactive; negative”; (Test System: AMES SALMONELLA TYPHIMURIUM, Strain/Indicator: TA100, Metabolic Activation: HAMSTER, LIVER, S-9, AROCLOR 1254 (10%), Method: PREINCUBATION) “inactive; negative”; under setting [3], “inactive; negative”; (Test System: AMES SALMONELLA TYPHIMURIUM, Strain/Indicator: TA100, Metabolic Activation: RAT, LIVER, S-9, AROCLOR 1254 (10%), Method: PREINCUBATION) “inactive; negative”. Moreover, the mutagenic call reads like this: (Test System: AMES SALMONELLA TYPHIMURIUM, Strain/Indicator: TA1535, Metabolic Activation: HAMSTER, LIVER, S-9, AROCLOR 1254 (10%), Method: PREINCUBATION) “inactive; negative”; (Test System: AMES SALMONELLA TYPHIMURIUM, Strain/Indicator: TA1535, Metabolic Activation: NONE, Method: PREINCUBATION) “inactive; negative”; (Test System: AMES SALMONELLA TYPHIMURIUM, Strain/Indicator: TA1535, Metabolic Activation: RAT, LIVER, S-9, AROCLOR 1254 (10%), Method: PREINCUBATION) “inactive; negative”; (Test System: AMES SALMONELLA TYPHIMURIUM, Strain/Indicator: TA1537, Metabolic Activation: HAMSTER, LIVER, S-9, AROCLOR 1254 (10%), Method: PREINCUBATION) “inactive; negative”; (Test System: AMES SALMONELLA TYPHIMURIUM, Strain/Indicator: TA1537, Metabolic Activation: NONE, Method: PREINCUBATION) “inactive; negative”; (Test System: AMES SALMONELLA TYPHIMURIUM, Strain/Indicator: TA1537, Metabolic Activation: RAT, LIVER, S-9, AROCLOR 1254 (10%), Method: PREINCUBATION) “inactive; negative”.

As to `C=C(C)C=O`, the mutagenic call runs as follows: (Test System: AMES SALMONELLA TYPHIMURIUM, Strain/Indicator: TA100, Metabolic Activation: NONE, Method: MODIFIED LIQUID SUSPENSION) “active; positive”; under setting [3], “active; positive”; (Test System: AMES SALMONELLA TYPHIMURIUM, Strain/Indicator: TA100, Metabolic Activation: RAT LIVER S-9, AROCLOR 1254, Method: PREINCUBATION) “active; positive”; (Test System: AMES SALMONELLA TYPHIMURIUM, Strain/Indicator: TA100, Metabolic Activation: RAT, LIVER, S-9, AROCLOR 1254, Method: MODIFIED LIQUID SUSPENSION) “active; positive”; (Test System: AMES SALMONELLA TYPHIMURIUM, Strain/Indicator: TA100, Metabolic Activation: RAT, LIVER, S-9, AROCLOR 1254, Method: PREINCUBATION) “active; positive”; under setting [4], “active; positive”. Moreover, the mutagenic call was “active; positive” (Test System: CHINESE HAMSTER V-79, Strain/Indicator: V-79 (HPRT)/6-THIOGUANINE, Metabolic Activation: NONE) and “inactive; negative” (Test System: CHINESE HAMSTER V-79, Strain/Indicator: V-79 (HPRT)/6-THIOGUANINE, Metabolic Activation: RAT LIVER S-9, AROCLOR 1254).

On to `O=C(O)C(Cl)=C(C(Cl)Cl)C(Cl)Cl`, for which the mutagenic call is, setting by setting: under setting [2], “active; positive”; under setting [3], “active; positive”; under setting [1], “active; positive”; under setting [4], “active; positive”.

In the case of `Nc1cc([N+](=O)[O-])ccc1C(=O)O`, the mutagenic call is “active; positive” under setting [2]; “active; positive” (Test System: AMES SALMONELLA TYPHIMURIUM, Strain/Indicator: TA98, Metabolic Activation: RAT, LIVER, S-9, AROCLOR, Method: PREINCUBATION); “inactive; negative” (Test System: CHINESE HAMSTER OVARY, Strain/Indicator: CHO-K1-BH4 (HGPRT)/6-THIOGUANINE, Metabolic Activation: NONE); “inactive; negative” (Test System: CHINESE HAMSTER OVARY, Strain/Indicator: CHO-K1-BH4 (HGPRT)/6-THIOGUANINE, Metabolic Activation: S-9).

For the compound `CCN(C)N=O`, the mutagenic call is, setting by setting: (Test System: AMES SALMONELLA TYPHIMURIUM, Strain/Indicator: TA100, Metabolic Activation: HAMSTER, LIVER, S-9, Method: PREINCUBATION) “active; positive”; (Test System: AMES SALMONELLA TYPHIMURIUM, Strain/Indicator: TA100, Metabolic Activation: HUMAN, LIVER, S-9, Method: PREINCUBATION) “inactive; negative”; (Test System: AMES SALMONELLA TYPHIMURIUM, Strain/Indicator: TA100, Metabolic Activation: PIG, LIVER, S-9, Method: PREINCUBATION) “inactive; negative”; (Test System: AMES SALMONELLA TYPHIMURIUM, Strain/Indicator: TA100, Metabolic Activation: RAT, LIVER, S-9, Method: PREINCUBATION) “inactive; negative”.

Turning to `CC(=O)N(O)c1ccc2c(ccc3ccccc32)c1`, the mutagenic call (Test System: UDS HUMAN FIBROBLASTS, Strain/Indicator: THY INCORP (NON-S-PHASE), Metabolic Activation: NONE, Method: AUTORADIOGRAPHY) is “active; positive”.

The values are drawn from PubChem BioAssay AID1259407 (Chemical Carcinogenesis Research Information System (CCRIS), 2018).
